Experimental data as given in patent US11591634B1, “Forecasting bacterial survival-success and adaptive evolution through multiomics stress-response mapping and machine learning” (priority 2019, dated 2023).
In brackets after ≈: the same amount, converted by molar mass.

Columns and labels:
Assay type in all cases: cell-based
[1] = tested on: A. baumannii ATCC 17978; assay: Ciprofloxacin MIC determination by growth curves; conditions: Acinetobacter baumannii, ATCC17978, read-out: measured MIC
Procedure: (§1) Each concentration was tested in triplicate. Growth was monitored on a Tecan Infinite 200 PRO plate reader at 37° C. for 16 hours. MIC is determined as the lowest concentration that abolishes bacterial growth (FIGS. 6A-6H).

[2] = tested on: A. baumannii LAC-4; assay: Ciprofloxacin MIC determination by growth curves; conditions: Acinetobacter baumannii, LAC4, read-out: measured MIC
Procedure: as §1

[3] = tested on: Escherichia coli AR538; assay: Fitness outcome under ciprofloxacin (growth curve assay); conditions: E. coli AR538
Procedure: (§2) Since the single-timepoint variant of entropy is the most practical (in terms of data collection and cost), the generalizability of entropy to previously unseen species was evaluated using this model. RNA-Seq was performed at 120 min post exposure to 1 μg/mL of CIP. […] Single-timepoint entropy was computed for the transcriptome of each of these previously unseen isolates.
(§3) S. pneumoniae strain TIGR4 (T4; NC_003028.3) is a serotype 4 strain originally isolated from a patient^3,4, Taiwan-19F (19F; NC_012469.1) is a multi-drug resistant strain^5,6 and D39 (NC_008533) is a commonly used serotype 2 strain originally isolated from a patient about 90 years ago^7. Strain PG1 and PG19 were isolated from adults with pneumococcal bacteremia infection and included in the Pneumococcal Bacteremia Collection Nijmegen (PBCN)^8. All S. pneumoniae gene numbers refer to the T4 genome. Correspondence between homologous genes among S. pneumoniae strains and gene function annotations are described herewith. Escherichia coli strain AR538, Klebsiella pneumoniae strain AR497 and Salmonella enterica subsp Typhimurium strain AR635 were clinical isolates obtained from the Center of Disease Control (CDC). Staphylococcus aureus strain MN6 was kindly provided by George Sakoulas (Center of Immunity, Infection & Inflammation, UCSD School of Medicine). Unless otherwise specified, S. pneumoniae strains were cultivated in Todd Hewitt medium with 5% yeast extract (THY) with 5 μL/mL oxyrase (Oxyrase, Inc) or on sheep's blood agar plates (Northeastern Laboratories) at 37° C. with 5% CO2. A. baumannii, E. coll. K. pneumoniae, S. aureus and S. Typhimurium were cultured in Mueller Hinton broth II (Sigma) at 37° C. with 220 rpm constant shaking. Tn-Seq and RNA-Seq experiments of S. pneumoniae under nutrient-depletion and antibiotic conditions were performed in chemically defined medium (CDM)^9 and semi-defined minimal medium (SDMM)^10, respectively. RNA-Seq experiments for A. baumannii, S. Typhimurium, E. coll. K. pneumoniae, and S. aureus were performed in Mueller Hinton broth II. Single strain growth assays were performed at least three times using 96-well plates by taking OD600 measurements on a Tecan Infinite 200 PRO plate reader.

[4] = tested on: Salmonella Typhimurium AR635; assay: as above; conditions: S. Typhimurium AR635, 1 μg/mL ciprofloxacin
Procedure: as §2, §3

[5] = tested on: Staphylococcus aureus MN6; assay: as above; conditions: S. aureus MN6
Procedure: as §2, §3

[6] = 1 μg/mL ciprofloxacin, listed as CIP
[7] = strain-specific 1xMIC of ciprofloxacin

## O=C(O)c1cn(C2CC2)c2cc(N3CCNCC3)c(F)cc2c1=O [Ciprofloxacin, ciprofloxacin]
[1]
  MIC: 0.07 µg/mL (≈ 0.211 µM)
[2]
  MIC: 8.5 µg/mL (≈ 25.7 µM)
[3]; 1 μg/mL ciprofloxacin
  Fitness: High
[3]; [6]
  Fitness: insensitive
[3]; 1 μg/mL ciprofloxacin, listed as ciprofloxacin
  Fitness: high fitness
[3]; [7]
  Fitness: Low,
[4]
  Fitness: Low
[4]; listed as ciprofloxacin
  Fitness: low fitness
[5]; 1 μg/mL ciprofloxacin
  Fitness: High
[5]; [6]
  Fitness: insensitive
[5]; [7]
  Fitness: Low,
